Results on 34 compounds are retold here after US6894185B2, “Substituted chiral allosteric hemoglobin modifiers” (Allós Therapeutics, Inc., priority 1999, dated 2005).

T1 sequence (P69905 2-142 limits assumed): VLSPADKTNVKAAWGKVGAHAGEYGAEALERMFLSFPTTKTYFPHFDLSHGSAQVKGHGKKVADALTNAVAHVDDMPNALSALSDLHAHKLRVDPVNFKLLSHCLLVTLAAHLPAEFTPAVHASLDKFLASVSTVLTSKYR
T1 sequence (P68871 2-147 limits assumed): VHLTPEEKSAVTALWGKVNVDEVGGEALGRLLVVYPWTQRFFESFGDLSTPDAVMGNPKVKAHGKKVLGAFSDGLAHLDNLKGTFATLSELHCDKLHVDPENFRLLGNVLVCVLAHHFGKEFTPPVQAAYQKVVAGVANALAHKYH

One experiment has as its target T1, hemoglobin (Homo sapiens, UniProt P68871+P69905).
T1 construct: The whole blood samples were collected in heparinized tubes from healthy volunteers; from tissue; host or cells: human whole blood (heparinized) from healthy volunteers
Kind of experiment: In vitro whole blood studies (multi-point tonometry and blood gas analysis). The class given is cell-based. The settings on record: Table II. The protocol:
Structure-allosteric activity relationships were determined from the synthetic chiral effectors comparing the shift in the oxygen binding curve of Hb solutions using a Hemox-Analyzer. In vitro biological activity testing in the presence of plasma proteins was also performed on selected enantiomers and racemates (multi-point tonometry and blood gas analysis) to screen for candidates with potential clinical use. SAR studies compared the degree in shift in P50 values, i.e., the partial pressure of molecular oxygen necessary to half-saturate hemoglobin. An effector that decreases Hb oxygen affinity increases the P50 value relative to the control. Thus, the activity or potency of each analog could be expressed by the ratio P50 (effector)/P50(control). Tables and II and III summarize the p50 values obtained using human whole blood, while Tables IV and V summarize the P50 and the Hill coefficient values (n50) at half-saturation obtained using Hemox-analyzer. The slope of the log of the oxygen binding curves is known as the Hill coefficient. The Hill coefficient measures the degree of cooperativity in binding for an allosteric protein, the normal range for human blood is 2.7-3.2. Table VI presents the results from the whole blood studies given as a ΔP50 and Hill coefficient (n50) values for the enantiomers and racemates.
The whole blood samples were collected in heparinized tubes from healthy volunteers and stored over ice. The sodium salts of the compounds were prepared as described earlier. A 200 mM stock solution of the effector was prepared in DMSO. A 5.0 mM test solution was prepared from 50 μL of the 200 mM test solution and 1950 μL of whole blood. The blood samples were incubated in IL 237 tonometers (Instrumentation Laboratories, Inc. Lexington, Mass.) for approximately 10-12 min at 37° C. and equilibrated at three separate concentrations of O2 (20%, 40%, and 60%). After equilibration at each concentration of O2, a sample was removed via syringe and aspirated into a IL 1420 Automated Blood Gas Analyzer (Instrumentation Laboratories, Inc. Lexington, Mass.) and a IL 482 and IL 682 Co-oximeter (Instrumentation Laboratories, Inc. Lexington, Mass.) to determine the pH, pCO2, pO2 and the hemoglobin oxygen saturation values (sO2), respectively. The measured values for pO2 and sO2 at each oxygen saturation level were then subjected to a non-linear regression analysis using the program Scientist (Micromath, Salt Lake City, Utah) to calculate the P50 and Hill coefficient values.
As for `Cc1cc(C)cc(NC(=O)C2(C)CCc3cc(OC(C)(C)C(=O)O)c(C)c(C)c3O2)c1` (stereo not shown) [Compound 17], the “Whole Blood Δp50 mm Hg” value amounted to 1 mm Hg. The same measure, in the same setting: under `CCC(Oc1ccc(CC(=O)Nc2cc(C)cc(C)c2)cc1)(C(=O)O)c1ccccc1` (stereo not shown) [Compound 16] stands 12 mm Hg.

As for `CCOC(C(=O)Nc1cc(C)cc(C)c1)c1ccc(OC(C)(C)C(=O)O)cc1` (stereo not shown) [Compound 13, 2-{4-[(3,5-Dimethyl-phenylcarbamoyl)-ethoxy-methyl]-phenoxy}-2-methyl-propionic acid], the “Whole Blood Δp50 mm Hg” value was determined as 4 mm Hg. On the same count and under the same terms, under `Cc1cc(C)cc(NC(=O)Cc2ccc(OC(C(=O)O)c3ccccc3)cc2)c1` (stereo not shown) [Compound 14] stands 15 mm Hg; under `Cc1cc(C)cc(NC(=O)C(O)c2ccc(OC(C)(C)C(=O)O)cc2)c1` (stereo not shown) [Compound 12, 2-{4-[(3,5-Dimethyl-phenylcarbamoyl)-hydroxy-methyl]-phenoxy}-2-methyl-propionic acid], 21 mm Hg. Turning to `Cc1cc(C)cc(NC(=O)Cc2ccc(OC(C)(C(=O)O)c3ccccc3)cc2)c1` (stereo not shown) [Compound 15], the “Whole Blood Δp50 mm Hg” value was 12 mm Hg.

The experiment is the same for the next values; noted with them: Table III.
Regarding `CSCC[C@H](NC(=O)C1(Oc2ccc(CC(=O)Nc3cc(C)cc(C)c3)cc2)CCCC1)C(=O)O` [Compound 52, 1-[4-(((3,5-dimethylanilino)carbonyl)methyl)phenoxy]cyclopentanecarbonyl-L-methionine], the “Whole Blood Δp50 mm Hg” value is on record as 21 mm Hg. As to `CSCCC(NC(=O)C(C)(C)Oc1ccc(CC(=O)Nc2cc(C)cc(C)c2)cc1)C(=O)O` (stereo not shown) [Compound 34, 2-(2-(4-((3,5-Dimethyl-phenylcarbamoyl)-methyl)-phenoxy)-2-methyl-propionylamino)-4-methylsulfanyl-butyric acid], the “Whole Blood Δp50 mm Hg” value was found to be 11 mm Hg. On the same count and under the same terms, then `Cc1cc(C)cc(NC(=O)Cc2ccc(OC(C)(C)C(=O)NC(C)C(=O)O)cc2)c1` (stereo not shown) [Compound 22], with 17 mm Hg; and `Cc1cc(C)cc(NC(=O)Cc2ccc(OC3(C(=O)N[C@@H](Cc4c[nH]c5ccccc45)C(=O)O)CCCC3)cc2)c1` [Compound 47, 1-[4-(((3,5-dimethylanilino)carbonyl)methyl)phenoxy]cyclopentanecarbonyl-L-tryptophan], with 20 mm Hg; and `Cc1cc(C)cc(NC(=O)Cc2ccc(OC(C)(C)C(=O)NC(C(=O)O)C(C)C)cc2)c1` (stereo not shown) [Compound 25], with 20 mm Hg. Turning to “(2-(2-{4-[(3,5-Dimethyl-phenylcarbamoyl)-methyl]-phenoxy}-2-methyl-propionylamino)-4-pentanoic acid [Compound 29]”, the “Whole Blood Δp50 mm Hg” value is 10 mm Hg.

In the case of `Cc1cc(C)cc(NC(=O)Cc2ccc(OC3(C(=O)N[C@@H](C(=O)O)C(C)C)CCCC3)cc2)c1` [Compound 42, 1-[4-(((3,5-dimethylanilino)carbonyl)methyl)phenoxy]cyclopentanecarbonyl-D-valine], the “Whole Blood Δp50 mm Hg” value is 27 mm Hg. On to `COC(=O)C(CC(=O)O)NC(=O)C(C)(C)Oc1ccc(CC(=O)Nc2cc(C)cc(C)c2)cc1` (stereo not shown) [Compound 31], for which the “Whole Blood Δp50 mm Hg” value came to 21 mm Hg. Take `CSCCC(NC(=O)C(C)(C)Oc1ccc(CC(=O)Nc2cc(C)cc(C)c2)cc1)C(=O)O` (stereo not shown) [Compound 33, 2-(2-(4-((3,5-Dimethyl-phenylcarbamoyl)-methyl)-phenoxy)-2-methyl-propionylamino)-4-methylsulfanyl-butyric acid]: the “Whole Blood Δp50 mm Hg” value is 16 mm Hg.

Consider `Cc1cc(C)cc(NC(=O)Cc2ccc(OC3(C(=O)N[C@@H](Cc4ccccc4)C(=O)O)CCCC3)cc2)c1` [Compound 45, 1-[4-(((3,5-dimethylanilino)carbonyl)methyl)phenoxy]cyclopentanecarbonyl-L-phenylalanine], for which the “Whole Blood Δp50 mm Hg” value turned out to be 20 mm Hg.

For the compound `Cc1cc(C)cc(NC(=O)Cc2ccc(OC3(C(=O)N[C@H](CCCCN)C(=O)O)CCCC3)cc2)c1` [Compound 61, 1-[4-(((3,5-dimethylanilino)carbonyl)methyl)phenoxy]cyclopentanecarbonyl-D-lysine], the “Whole Blood Δp50 mm Hg” value is recorded as −0.2 mm Hg. Take `Cc1cc(C)cc(NC(=O)Cc2ccc(OC(C)(C)C(=O)NC(CSCc3ccccc3)C(=O)O)cc2)c1` (stereo not shown) [Compound 36, 3-Benzylsulfanyl-2-(2-(4-((3,5-Dimethyl)-phenylcarbamoyl)-methyl-phenoxy)-2-methyl-propionylamino)-propionic acid]: the “Whole Blood Δp50 mm Hg” value came out at 18 mm Hg. Same read-out and setting: then `Cc1cc(C)cc(NC(=O)Cc2ccc(OC(C)(C)C(=O)NC(Cc3c[nH]c4ccccc34)C(=O)O)cc2)c1` (stereo not shown) [Compound 32], with 11 mm Hg; and `Cc1cc(C)cc(NC(=O)Cc2ccc(OC3(C(=O)N[C@@H](CCC(=O)O)C(=O)O)CCCC3)cc2)c1` [Compound 48, 1-[4-(((3,5-dimethylanilino)carbonyl)methyl)phenoxy]cyclopentanecarbonyl-L-glutamate], with 22 mm Hg; and `Cc1cc(C)cc(NC(=O)Cc2ccc(OC(C)(C)C(=O)NC(C(=O)O)C(C)C)cc2)c1` (stereo not shown) [Compound 24], with 22 mm Hg. Still for that read-out and setting: under `Cc1cc(C)cc(NC(=O)Cc2ccc(OC(C)(C)C(=O)NC(C(=O)O)C(C)C)cc2)c1` (stereo not shown) [Compound 26] stands 20 mm Hg; under “1-[4-(((3,5-dimethylanilino)carbonyl)methyl) phenoxy]cyclopentane carbonyl glycine [Compound 37]”, 25 mm Hg; under `Cc1cc(C)cc(NC(=O)Cc2ccc(OC3(C(=O)N[C@H](C)C(=O)O)CCCC3)cc2)c1` [Compound 38, 1-[4-(((3,5-dimethylanilino)carbonyl)methyl)phenoxy]cyclopentanecarbonyl-D-alanine], 30 mm Hg. Take `Cc1cc(C)cc(NC(=O)Cc2ccc(OC(C)(C)C(=O)N3CCCC3C(=O)O)cc2)c1` (stereo not shown) [Compound 35]: the “Whole Blood Δp50 mm Hg” value was 12 mm Hg.

In the case of `Cc1cc(C)cc(NC(=O)Cc2ccc(OC3(C(=O)N[C@@H](CC(=O)O)C(=O)O)CCCC3)cc2)c1` [Compound 55, 1-[4-(((3,5-dimethylanilino)carbonyl)methyl)phenoxy]cyclopentanecarbonyl-L-aspartate], the “Whole Blood Δp50 mm Hg” value is listed as 27 mm Hg. Still for that read-out and setting: then `Cc1cc(C)cc(NC(=O)Cc2ccc(OC3(C(=O)N[C@@H](CSCc4ccccc4)C(=O)O)CCCC3)cc2)c1` [Compound 57, 1-[4-(((3,5-dimethylanilino)carbonyl)methyl)phenoxy]cyclopentanecarbonyl S-benzyl-L-cysteine], with 7 mm Hg; and `COC(=O)C(CCC(=O)O)NC(=O)C(C)(C)Oc1ccc(CC(=O)Nc2cc(C)cc(C)c2)cc1` (stereo not shown) [Compound 30], with 26 mm Hg; and `Cc1cc(C)cc(NC(=O)Cc2ccc(OC3(C(=O)N[C@H](CCCCNC(=O)OCc4ccccc4)C(=O)O)CCCC3)cc2)c1` [Compound 60, N^a-1-[4-(((3,5dimethylanilino)carbonyl)methyl)phenoxy]cyclopentane-carbonyl-N^e-benzyloxycarbonyl-D-lysine], with 14 mm Hg. With `Cc1cc(C)cc(NC(=O)Cc2ccc(OC(C)(C)C(=O)NC(Cc3ccccc3)C(=O)O)cc2)c1` (stereo not shown) [Compound 27], the “Whole Blood Δp50 mm Hg” value came to 10 mm Hg. On the same count and under the same terms, then `Cc1cc(C)cc(NC(=O)Cc2ccc(OC(C)(C)C(=O)NC(C)C(=O)O)cc2)c1` (stereo not shown) [Compound 23], with 22 mm Hg; and `Cc1cc(C)cc(NC(=O)Cc2ccc(OC(C)(C)C(=O)NCC(=O)O)cc2)c1` [KDD4-24], with 17 mm Hg.

Consider `Cc1cc(C)cc(NC(=O)Cc2ccc(OC3(C(=O)N[C@@H](CCCCNC(=O)OCc4ccccc4)C(=O)O)CCCC3)cc2)c1` [Compound 59, N^a-1-[4-(((3,5dimethylanilino)carbonyl)methyl)phenoxy]cyclopentane-carbonyl-N^e-benzyloxycarbonyl-L-lysine], for which the “Whole Blood Δp50 mm Hg” value is given as 0.4 mm Hg. On the same count and under the same terms, under `Cc1cc(C)cc(NC(=O)Cc2ccc(OC(C)(C)C(=O)NC(Cc3ccccc3)C(=O)O)cc2)c1` (stereo not shown) [Compound 28] stands 20 mm Hg.
